The supplement of paper PMC10331698
± gives the standard deviation of the averaged measurements.

Assays:
Experiment in all cases: level (log10 ratio to DMSO vehicle control); higher = higher biomarker level / cell amount than vehicle control
Settings in all cases: in DMSO
Methotrexate = compound: CN(Cc1cnc2nc(N)nc(N)c2n1)c1ccc(C(=O)N[C@@H](CCC(=O)O)C(=O)O)cc1 [Methotrexate]
Experimental: (§1)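 BioMAP Diversity Plus panel of 12 human primary cell co-culture systems (3C, 4H, LPS, SAg, BT, BF4T, BE3C, CASM3C, HDF3CGF, KF3CT, MyoF, Mphg). Compounds were added 1 h before stimulation and left for 24 h (MyoF 48 h; BT 72 h for soluble read-outs or 6 d for IgG). Biomarkers were read by ELISA, cytotoxicity by SRB, PBMC viability and proliferation by Alamar Blue. Each well value was divided by the mean of 8 DMSO control wells on the same plate and log10 transformed; duplicate blinded samples were tested at 4 concentrations.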

[1] = compound: FC(F)(F)C(F)(F)C(F)(F)C(F)(F)CCI [1H,1H,2H,2H-Perfluorohexyl iodide]
Experimental: as §1

[2] = compound: O=C(CC(=O)C(F)(F)C(F)(F)C(F)(F)F)c1cccs1 [(Perfluorobutyryl)-2-thenoylmethane]
Experimental: as §1

[3] = compound: O=C(Cl)C(F)(F)C(F)(F)C(F)(F)C(=O)Cl [Hexafluoroglutaryl chloride]
Experimental: as §1

Perfluorooctanoic acid = compound: O=C(O)C(F)(F)C(F)(F)C(F)(F)C(F)(F)C(F)(F)C(F)(F)C(F)(F)F [Perfluorooctanoic acid]
Experimental: as §1

Perfluoropinacol = compound: OC(C(F)(F)F)(C(F)(F)F)C(O)(C(F)(F)F)C(F)(F)F [Perfluoropinacol]
Experimental: as §1

[4] = compound: OCC(F)(F)C(F)(F)C(F)(F)C(F)(F)C(F)(F)C(F)(F)C(F)(F)C(F)(F)CO [1H,1H,10H,10H-Perfluorodecane-1,10-diol]
Experimental: as §1

| Test System | level (log10) (Methotrexate; 1500 nM) | level (log10) (Methotrexate; 4400 nM) | level (log10) (Methotrexate; 13000 nM) | level (log10) (Methotrexate; 40000 nM) | level (log10) ([1]; 6700 nM) | level (log10) ([1]; 20000 nM) | level (log10) ([1]; 60000 nM) | level (log10) ([2]; 6700 nM) | level (log10) ([2]; 20000 nM) | level (log10) ([3]; 6700 nM) | level (log10) ([3]; 20000 nM) | level (log10) ([3]; 60000 nM) | level (log10) (Perfluorooctanoic acid; 6700 nM) | level (log10) (Perfluorooctanoic acid; 20000 nM) | level (log10) (Perfluorooctanoic acid; 60000 nM) | level (log10) (Perfluoropinacol; 6700 nM) | level (log10) (Perfluoropinacol; 20000 nM) | level (log10) ([4]; 6700 nM) | level (log10) ([4]; 20000 nM) | level (log10) ([4]; 60000 nM) |
| --- | --- | --- | --- | --- | --- | --- | --- | --- | --- | --- | --- | --- | --- | --- | --- | --- | --- | --- | --- | --- |
| MyoF:CD106/VCAM-1 | 0.0165 ± 0.015 | -0.0045 ± 0.013 | 0.038 ± 0.024 | 0.0095 ± 0.0092 | 0.001 ± 0.0071 | -0.0135 ± 0.015 | -0.059 ± 0.014 | -0.0225 ± 0.039 | -0.0315 ± 0.013 | -0.003 ± 0.0028 | 0.0015 ± 0.018 | 0.0035 ± 0.012 | 0.0065 ± 0.011 | 0.004 ± 0.0028 | 0.0095 ± 0.00071 | -0.013 ± 0.011 | -0.042 ± 0.0085 | 0.0025 ± 0.021 | -0.0025 ± 0.025 | -0.19 |
| MyoF:CXCL8/IL-8 | 0.0055 ± 0.028 | 0.0135 ± 0.016 | -0.0035 ± 0.033 | 0.0105 ± 0.022 | 0.065 ± 0.1 | 0.078 ± 0.1 | 0.142 ± 0.12 | -0.0155 ± 0.0078 | 0.016 ± 0.018 | -0.017 ± 0.0071 | 0.014 ± 0.011 | 0.03 ± 0.0085 | 0.022 ± 0.0028 | 0.0725 ± 0.026 | 0.078 ± 0.02 | 0.0295 ± 0.005 | 0.0265 ± 0.012 | -0.0285 ± 0.0021 | -0.033 ± 0.013 | 0.025 |
| MyoF:Collagen I | -0.0115 ± 0.049 | -0.01 ± 0.059 | 0.01 ± 0.035 | 0.004 ± 0.038 | -0.0005 ± 0.0035 | 0.0005 ± 0.022 | 0.0205 ± 0.042 | -0.0255 ± 0.037 | -0.128 ± 0.033 | 0.004 ± 0.013 | -0.0005 ± 0.025 | 0.0145 ± 0.00071 | -0.0065 ± 0.0092 | -0.0035 ± 0.036 | -0.034 ± 0.017 | 0.044 | -0.006 ± 0.0099 | -0.0105 ± 0.015 | -0.0275 ± 0.013 | -0.109 |
| MyoF:Collagen III | -0.011 ± 0.04 | -0.001 ± 0.065 | 0.009 ± 0.069 | 0.014 ± 0.041 | 0.0045 ± 0.0092 | -0.007 ± 0.0014 | -0.007 ± 0.021 | -0.059 ± 0.018 | -0.141 ± 0.0078 | -0.0115 ± 0.0078 | -0.004 ± 0.035 | -0.003 ± 0.021 | 0.007 ± 0.0028 | -0.001 ± 0.0071 | -0.039 ± 0.0099 | -0.0405 ± 0.011 | -0.136 ± 0.0014 | -0.0305 ± 0.0092 | -0.042 ± 0.0099 | -0.378 |
| MyoF:Collagen IV | -0.0195 ± 0.025 | 0.004 ± 0.033 | 0.007 ± 0.061 | -0.014 ± 0.016 | 0.011 ± 0.031 | 0.024 ± 0.017 | 0.021 ± 0.05 | 0.018 ± 0.1 | 0.534 ± 0.07 | -0.021 ± 0.099 | -0.0295 ± 0.11 | -0.0075 ± 0.069 | 0.011 ± 0.014 | 0.051 ± 0.033 | 0.214 ± 0.03 | 0.0385 ± 0.005 | 0.165 ± 0.0028 | -0.0265 ± 0.0035 | -0.013 ± 0.0071 | 0.156 |
| MyoF:Decorin | 0.0355 ± 0.037 | 0.0025 ± 0.026 | 0.0105 ± 0.016 | 0.0275 ± 0.0078 | 0.0085 ± 0.012 | 0.011 ± 0.025 | 0.024 ± 0.075 | 0.0045 ± 0.011 | 0.0285 ± 0.022 | -0.014 ± 0.016 | -0.0095 ± 0.026 | -0.006 ± 0.0099 | 0.007 ± 0.018 | 0.02 ± 0.025 | 0.033 ± 0.055 | -0.041 ± 0.024 | -0.034 ± 0.025 | 0.004 ± 0.027 | -0.0005 ± 0.042 | 0.007 |
| MyoF:MMP-1 | 0.002 ± 0.027 | -0.017 ± 0.02 | -0.004 ± 0.018 | 0.0175 ± 0.0021 | -0.0055 ± 0.023 | -0.0045 ± 0.039 | 0.066 ± 0.11 | -0.0565 ± 0.052 | -0.0005 ± 0.018 | -0.043 ± 0.05 | -0.026 ± 0.054 | -0.0195 ± 0.018 | -0.032 | -0.018 ± 0.038 | 0.043 ± 0.086 | -0.0075 ± 0.012 | -0.027 ± 0.0042 | -0.0415 ± 0.013 | -0.0275 ± 0.012 | 0.284 |
| MyoF:PAI-I | -0.026 ± 0.072 | -0.011 ± 0.035 | 0.0015 ± 0.016 | -0.0185 ± 0.084 | 0.0085 ± 0.0064 | -0.003 ± 0.0071 | 0.0085 ± 0.03 | 0.0095 ± 0.0035 | 0.013 ± 0.0085 | -0.001 ± 0.0085 | 0.02 ± 0.013 | 0.01 ± 0.0042 | -0.0225 ± 0.011 | -0.023 ± 0.024 | -0.0305 ± 0.029 | -0.0215 ± 0.012 | -0.0025 ± 0.00071 | -0.0155 ± 0.005 | -0.008 ± 0.0042 | -0.005 |
| MyoF:SRB | 0.012 ± 0.013 | 0.003 | 0.0125 ± 0.0064 | -0.0005 ± 0.005 | 0.008 ± 0.0042 | 0.0055 ± 0.012 | 0.004 ± 0.018 | -0.0225 ± 0.022 | -0.0395 ± 0.0035 | 0 ± 0.011 | 0.003 ± 0.0028 | -0.003 ± 0.018 | 0.0025 ± 0.0035 | 0.0065 ± 0.012 | -0.034 ± 0.0057 | -0.012 | -0.0445 ± 0.0021 | -0.012 | -0.019 ± 0.017 | -0.098 |
| MyoF:TIMP-1 | -0.0025 ± 0.0021 | -0.025 ± 0.027 | -0.012 ± 0.033 | -0.0285 ± 0.084 | 0.019 ± 0.041 | 0.024 ± 0.083 | 0.021 ± 0.12 | -0.042 ± 0.047 | -0.0405 ± 0.015 | -0.04 ± 0.057 | -0.024 ± 0.027 | 0.0175 ± 0.04 | -0.0245 ± 0.005 | 0.0185 ± 0.0078 | 0.089 ± 0.013 | 0.006 ± 0.016 | -0.021 ± 0.0028 | 0.03 ± 0.031 | 0.078 ± 0.04 | 0.052 |
| MyoF:alpha-SM Actin | -0.001 ± 0.0028 | -0.0225 ± 0.0092 | -0.008 ± 0.0071 | -0.017 ± 0.033 | 0.03 ± 0.064 | 0.0325 ± 0.064 | 0.043 ± 0.034 | -0.0445 ± 0.042 | -0.0865 ± 0.059 | -0.0115 ± 0.018 | -0.0065 ± 0.057 | -0.0105 ± 0.035 | 0.014 ± 0.02 | 0.0155 ± 0.047 | -0.0035 ± 0.032 | -0.004 ± 0.0028 | -0.14 ± 0.035 | -0.0025 ± 0.019 | -0.041 ± 0.03 | -0.395 |
| MyoF:bFGF | -0.0095 ± 0.015 | -0.0045 ± 0.021 | 0.009 ± 0.0071 | -0.0095 ± 0.0035 | 0.0095 ± 0.021 | 0.0205 ± 0.026 | 0.0285 ± 0.042 | 0.002 ± 0.0028 | -0.0175 ± 0.00071 | 0.0045 ± 0.0035 | -0.0035 ± 0.0078 | 0.0135 ± 0.0035 | -0.023 ± 0.0057 | -0.0275 ± 0.0035 | -0.0085 ± 0.03 | -0.0075 ± 0.012 | -0.0225 ± 0.0092 | -0.007 ± 0.011 | 0.0005 ± 0.00071 | 0.005 |
